Reference: Sander's compilation of Henry's law constants (doi:10.1136/oem.36.3.231)

Assay: Henry solubility constant Hcp at 310 K (mol/(m3 Pa))
Settings: reference: Sato and Nakajima (1979a)

Structure (SMILES) | Henry solubility constant Hcp at 310 K
Cc1ccccc1C [1,2-dimethylbenzene] | 0.001
Cc1cccc(C)c1 [1,3-dimethylbenzene] | 0.00064
Cc1ccc(C)cc1 [1,4-dimethylbenzene] | 0.00061
CCCCCC(C)=O [2-heptanone] | 0.037
CCCCC(C)=O [2-hexanone] | 0.043
CCCC(C)=O [2-pentanone] | 0.064
C=CCc1ccccc1 [2-propenylbenzene] | 0.0014
CCC(=O)CC [3-pentanone] | 0.07
CC(=O)CC(C)C [4-methyl-2-pentanone] | 0.031
CC(C)c1ccccc1 [(2-propyl)-benzene] | 0.00056
c1ccccc1 [benzene] | 0.0011
C=Cc1ccccc1 [ethenylbenzene] | 0.0018
CCc1ccccc1 [ethylbenzene] | 0.00066
Cc1ccccc1 [methylbenzene] | 0.00086
CC(C)=O [propanone] | 0.15
CCCc1ccccc1 [propylbenzene] | 0.0005
